# Test results reported in US8497123B2, “Sterol glucoside toxins” (priority 2000, dated 2013).
# “Also recorded” adds a separate entry of the source. Where two headings read alike, the source gives them in different places.
# Tests used:
# [1] = system: adult rat neocortex cortical wedges; assay type: cell-based; conditions: for field potential response: cortical wedge, Mg2+-free buffer; for field potential response with AMPA antagonist NBQX: co-application of NBQX or other AMPA antagonists; for field potential response with NMDA receptor antagonists (AP5, kynurenate, MK801): co-application of NMDA antagonist
# Method: Cortical ‘wedges’ were prepared as described previously (Shaw et al., 1996). In brief, animals were anesthetized with CO2, decapitated, and a cortical block rapidly removed and placed in cold Krebs-Henseleit buffer containing (in mM): NaCl 124, KCl 3.3, NaHCO3 25, glucose 10, KH2PO4 1.2, CaCl2 2.4, and MgSO4 1.2, bubbled with 5% CO2/95% O2, pH 7.4. The cortical block was sectioned into […] thick coronal slices using a Vibratome (Campden Instruments) and the slices cut into pie shaped wedges in which the white matter formed the narrow edge of the wedge. Each wedge was placed on a net across a grease gap between two fluid filled chambers. The cortical side of the wedge was bathed (at room temperature, approx. 25° C.) in buffer lacking Mg^2+; the callosal portion was bathed in buffer containing Mg^2+ to minimize neural activity. Field potentials were differentially recorded between the two chambers using two Ag/AgCl electrodes. Recordings from up to 6 wedges, each in individual chambers, could be made simultaneously for each experiment. The wedges were continuously perfused on the cortical side with oxygenated, Mg^2+-free buffer using a gravity feed system. Using this system, drugs could be rapidly substituted for control media to examine response characteristics. Wedges typically survived for up to 8 hrs. Responses were recorded on LabView™ after amplification and A/D conversion and the traces were charted in Excel™ for Windows™. Statistical analysis of peak response amplitude was performed by one-way ANOVA using Bonferroni's post test with GraphPad Prism™.
# [2] = system: human cortical astrocytes; assay type: cell-based; conditions: for apoptotic cell loss (cell density, caspase-3): cortical astrocytes on coverslips
# Method: FIG. 5: Caspase-3 labeling of human cortical astrocytes in tissue culture. Fetal human telencephalic astrocytes were grown to confluency and then exposed to NMDA, BSSG, cholesterol glucoside (CG), or hydrogen peroxide (H2O2) for various periods. […] At longer time points, the overall numbers of cells in these conditions declined.
# We have raised cortical astrocytes on coverslips in culture, exposing them to […], or cholesterol glucoside. Cell loss was measured directly by cell density measurements; apoptosis was measured by staining cells for caspase-3 labeling.
# rat cortical slices [3] = conditions: for LDH release (cell death) / LDH release in presence of AP5 / NMDA antagonists: rat cortical slices; for LDH release (cell death): 1 hr at 37° C.; for LDH release in presence of AP5 / NMDA antagonists: plus AP5
# Method: Cortical slices were prepared as described above in the glutamate release experiments and placed in tissue culture wells containing Krebs-Heinsleight buffer supplemented with 0.0004% H2O2 and 1 mg/mL glucose. […] For additional comparison and to establish the limits of the method, some slices were freeze-thawed to kill all the cells. Alternatively, some slices were incubated in buffer containing 1.2 mM Mg^2+ in order to diminish spontaneous neural activity. At the end of the 1 hr incubation period, 3 samples (100 μl of buffer, each sample) were taken from each well. LDH assays were performed on these samples using a LDH diagnostic kit (Sigma) following the manufacturer's protocol with some modifications. In brief, 0.5 ml of pyruvate solution was mixed with 0.5 mg pre-weighed NADH. 100 μl of slice medium (free of slices) was added to the mixture and incubated for 30 min at 37° C. 0.5 ml of Sigma coloring reagent (2, 4-dinitrophenylhydrazine in HCl, 2 mg/ml) was added to develop the color and the mixture was incubated for 20 min at room temperature. 5 ml of 0.4 N NaOH were added to each tube. After 5 min, optical density was read at 440 nm. Standard curves were prepared for each assay using different concentrations of pyruvate solution (0-960 units). LDH activity (in International Units) was calculated from the standard curve and normalized by total protein content of each slice as determined by the Lowry protein assay (Peterson, 1979). One International Unit represents the amount of enzyme required to convert 1 μmol of substrate/minute at room temperature.
# (§1) Data for LDH and glutamate release experiments were analyzed for significance by one way ANOVA using Dunnett's and Bonferroni's post tests with GraphPad Prism™.
# Rats = conditions: rats fed MSO
# Method: Terminal deoxynucleotidyl transferase (TdT) mediated dUTP-digoxigenin (DIG) nickend labeling (TUNEL) was carried out using an Intergen ApopTag Plus peroxidase kit using the manufacturer's protocol adapted from Gavrieli et al. (1992) with some modifications. […] Briefly, 20 μM thick coronal sections were cut on a cryostat then fixed in 1% paraformaldehyde at room temperature for 2 days. […] After rinsing with PBS, the sections were then exposed to 11 μL/cm^2 working strength of TdT enzyme for 1 hr at 37° C. After washing in PBS, 15 μL/cm^2 of anti-digoxigenin-peroxidase was applied for 30 min in a humidified chamber at room temperature. Colour was developed by adding 125 μl DAB substrate working solution for 6 min. Slides were counter-stained with methyl green for 25 minutes at room temperature. Positive apoptosis controls were generated by pre-incubating sections with DNAase (Sigma).
# rat cortical slices [4] = assay type: cell-based
# Method: Brain slices were taken from cortical blocks in which all subcortical tissue had been removed. […] slices were cut using a modified slice cutter (Van Huizen et al., 1989). Slices were rinsed twice for 5 min in Mg^+2 containing Krebs-Henseleit buffer pH 7.4. Incubation media consisted of 100 μM cold glutamate, 20 μM AP5 and 10 μM DNQX, the latter NMDA or AMPA antagonists, respectively. 10 nM of [^3H]-glutamate was added to the mixture and incubated for 1 hr at 37° C. under in oxygenated atmosphere (O2/CO2=95/5%). Experimental treatments were performed in […] Mg^+2 free buffer placed in tissue culture wells containing different concentrations of MSO or isolated BSSG fractions of cycad flour. Slices were removed at the end of incubation period and the supernatant removed for scintillation counting. The supernatant fractions were placed in scintillation vials containing NEN Formula 989 for a minimum of 12 hrs before being counted in a Beckman LS6000 scintillation counter. Results were normalized to the dpm counts of respective controls.
# as §1
# [5] = fetal human telencephalic astrocytes, vs. control (DMEM)
smiles,measurement,setting,value
"CC(C)CCC[C@@H](C)[C@H]1CC[C@H]2[C@@H]3CC=C4C[C@@H](O[C@@H]5O[C@H](CO)[C@@H](O)[C@H](O)[C@H]5O)CC[C@]4(C)[C@H]3CC[C@]12C [cholesterol glucoside, 5-cholesten-3b-ol-3b-D-glucoside]",field potential response,[1]; bath application,qualitatively similar to β-sitosterol-β-D-glucoside
same,"apoptotic cell loss (cell density, caspase-3)",[2],time-dependent apoptotic cell loss
same,caspase-3 positive labeling,[2]; [5],significant caspase-3 positive labeling
same,LDH release (cell death),rat cortical slices [3],qualitatively similar to β-sitosterol-β-D-glucoside
CO[C@H]1[C@@H](O)[C@@H](C)O[C@@H](O[C@H]2CC[C@]3(C)[C@H]4CC[C@]5(C)[C@@H](C6=CC(=O)OC6)CC[C@]5(O)[C@@H]4CC[C@]3(O)C2)[C@@H]1O [emicymarin],field potential response,[1]; bath application,small hyperpolarizing responses
same,LDH release (cell death),rat cortical slices [3],little LDH release
"OO [H2O2, hydrogen peroxide]",caspase-3 positive labeling,[2]; human,significant caspase-3 positive labeling
same,effect on LDH release,rat cortical slices [3],did not affect
"CS(=N)(=O)CC[C@H](N)C(=O)O (stereo partly shown) [MSO, methionine sulfoximine]",apoptosis in CNS,Rats,evidence of apoptosis
same,concentration at which depolarizing field potentials begin,"[1]; bath application, cortical wedge from adult rat",approx. 50 μM
same,field potential response,[1]; bath application,depolarizing field potentials
same,field potential response with AMPA antagonist NBQX,[1],not blocked
same,"field potential response with NMDA receptor antagonists (AP5, kynurenate, MK801)",[1],blocked
same,calcium dependence of [3H]-glutamate release,rat cortical slices [4]; calcium 0 (L) or 2 mM (H),calcium dependent
same,preloaded [3H]-glutamate release,rat cortical slices [4]; rat cortical slices,significantly increased
same,[3H]-glutamate release in presence of AP5,"rat cortical slices [4]; rat cortical slices, plus AP5",blocked
same,LDH release (cell death),rat cortical slices [3],increased cell death
same,LDH release in presence of AP5 / NMDA antagonists,rat cortical slices [3],blocked
"CC[C@H](CC[C@@H](C)[C@H]1CC[C@H]2[C@@H]3CC=C4C[C@@H](O)CC[C@]4(C)[C@H]3CC[C@]12C)C(C)C [β-sitosterol agylcone, beta-sitosterol (stigmasta-5-en-3beta-ol)]",field potential response,[1]; bath application,without effect
same,LDH release (cell death),rat cortical slices [3],without effect
"Cc1onc(O)c1CC(N)C(=O)O (stereo not drawn) [AMPA, α-amino-3-hydroxy-5-methyl-4-isoxazolepropionic acid]",field potential response with AMPA antagonist NBQX,[1],blocked
"CN[C@H](CC(=O)O)C(=O)O [NMDA, N-methyl-D-aspartate]","field potential response with NMDA receptor antagonists (AP5, kynurenate, MK801)",[1],blocked
same,caspase-3 positive labeling,[2]; [5],significant caspase-3 positive labeling
same,LDH release (cell death),rat cortical slices [3],increased cell death
same,LDH release in presence of AP5 / NMDA antagonists,rat cortical slices [3],attenuated; also recorded: blocked
C=C(C)[C@H]1CN[C@H](C(=O)O)[C@H]1CC(=O)O [kainic acid],"apoptotic cell loss (cell density, caspase-3)",[2],time-dependent apoptotic cell loss
"CC[C@H](CC[C@@H](C)[C@H]1CC[C@H]2[C@@H]3CC=C4C[C@@H](O[C@@H]5O[C@H](CO)[C@@H](O)[C@H](O)[C@H]5O)CC[C@]4(C)[C@H]3CC[C@]12C)C(C)C [BSSG, beta-sitostrol-beta-D-glucoside (5-cholesten-24b-ethyl-3b-ol-D-glucoside)]",field potential response,[1]; bath application,qualitative similarity
same,"apoptotic cell loss (cell density, caspase-3)",[2],time-dependent apoptotic cell loss
same,caspase-3 positive labeling,[2]; [5],significant caspase-3 positive labeling
same,LDH release (cell death),rat cortical slices [3],qualitative similarity
CC(C)CCC[C@@H](C)[C@H]1CC[C@H]2[C@@H]3CC=C4C[C@@H](O)CC[C@]4(C)[C@H]3CC[C@]12C [cholesterol],field potential response,[1]; bath application,without effect
same,LDH release (cell death),rat cortical slices [3],without effect
"C[C@@H]1O[C@@H](O[C@H]2C[C@@H](O)[C@]3(CO)[C@H]4[C@H](O)C[C@]5(C)[C@@H](C6=CC(=O)OC6)CC[C@]5(O)[C@@H]4CC[C@]3(O)C2)[C@H](O)[C@H](O)[C@H]1O [Ouabain, ouabain]",field potential response,[1]; bath application,small hyperpolarizing responses
same,LDH release (cell death),rat cortical slices [3],little LDH release
